# Laboratory results published in patent publication US20060178374A1, “Aminoheteroaryl compounds as protein kinase inhibitors” (AGOURON PHARMACEUTICALS, INC., priority 2004, published 2006).
# Target: HGFR (c-Met) (Homo sapiens, UniProt P08581)
# Assay: HGFR Continuous-Coupled Spectrophotometric Assay
# Format: biochemical
# Details: for Ki: HGFR enzyme 50 nM, Met-2 peptide substrate, 37° C.; for inhibition at 1 µM: compound at 1 μM
# Summary of the method: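 Human HGFR (50 nM final) phosphorylates the Met-2 activation-loop peptide, with ADP formation coupled through PK/LDH to NADH consumption, read as the A340 decrease over 10 min at 37 °C. Buffer was HEPES pH 7.5 with MgCl2, DTT, PEP and ATP.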
# Sequence of HGFR (c-Met) (P08581 974-1390): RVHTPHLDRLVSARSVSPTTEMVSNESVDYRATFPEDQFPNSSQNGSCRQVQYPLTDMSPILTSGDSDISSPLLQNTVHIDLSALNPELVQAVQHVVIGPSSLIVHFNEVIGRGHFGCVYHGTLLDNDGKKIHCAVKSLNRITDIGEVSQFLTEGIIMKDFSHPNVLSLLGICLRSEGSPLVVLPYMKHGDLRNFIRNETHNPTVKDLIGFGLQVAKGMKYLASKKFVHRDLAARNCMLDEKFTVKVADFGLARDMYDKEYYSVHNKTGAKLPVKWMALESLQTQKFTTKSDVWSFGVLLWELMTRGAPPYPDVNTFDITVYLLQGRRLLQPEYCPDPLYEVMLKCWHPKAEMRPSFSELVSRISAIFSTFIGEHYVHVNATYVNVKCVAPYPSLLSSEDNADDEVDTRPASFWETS
Ki [nM],inhibition at 1 µM [%],SMILES
71,,"CC(Oc1cc(-c2ccc(C(=O)N3CCNCC3)cc2)cnc1N)c1c(Cl)ccc(O)c1Cl (stereo not shown) [Example 79, (4-{6-Amino-5-[1-(2,6-dichloro-3-hydroxy-phenyl)-ethoxy]-pyridin-3-yl}-phenyl)-piperazin-1-yl-methanone]"
6,,"COc1ccc(Cl)c(C(C)Oc2cc(-c3ccc(C(=O)N4CCNCC4)cc3)cnc2N)c1Cl (stereo not shown) [Example 80, (4-{6-Amino-5-[1-(2,6-dichloro-3-methoxy-phenyl)-ethoxy]-pyridin-3-yl}-phenyl)-piperazin-1-yl-methanone]"
1000,,"CC(Oc1cc(C(N)=O)cnc1N)c1c(Cl)ccc(F)c1Cl (stereo not shown) [Example 81, 6-Amino-5-[1-(2,6-dichloro-3-fluoro-phenyl)-ethoxy]-nicotinamide]"
410,,"Cc1ccc(Cl)c(C(C)Oc2cc(-c3ccc(C(=O)N4CCC(N5CCCC5)CC4)cc3)cnc2N)c1F (stereo not shown) [Example 82, (4-{6-Amino-5-[1-(6-chloro-2-fluoro-3-methyl-phenyl)-ethoxy]-pyridin-3-yl}-phenyl)-(4-pyrrolidin-1-yl-piperidin-1-yl)-methanone]"
,11,"CCC(Oc1cc(-c2ccc(C(=O)N3CCC(N4CCCC4)CC3)cc2)cnc1N)c1cc(F)c(F)cc1F (stereo not shown) [Example 83, (4-{6-Amino-5-[1-(2,4,5-trifluoro-phenyl)-propoxy]-pyridin-3-yl}-phenyl)-(4-pyrrolidin-1-yl-piperidin-1-yl)-methanone]"
5480,,"CC(Oc1cc(-c2ccc(C(=O)N3CCC(N4CCCC4)CC3)cc2)cnc1N)c1cccc(C(=O)O)c1 (stereo not shown) [Example 84, 3-(1-{2-Amino-5-[4-(4-pyrrolidin-1-yl-piperidine-1-carbonyl)-phenyl]-pyridin-3-yloxy}-ethyl)-benzoic acid]"
780,,"Cc1cn(-c2cnc(N)c(OC(C)c3c(Cl)ccc(F)c3Cl)c2)cn1 (stereo not shown) [Example 85, 3-[1-(2,6-Dichloro-3-fluoro-phenyl)-ethoxy]-5-(4-methyl-imidazol-1-yl)-pyridin-2-ylamine]"
1810,,"COC(=O)c1cn(-c2cnc(N)c(OC(C)c3c(Cl)ccc(F)c3Cl)c2)cn1 (stereo not shown) [Example 86, 1-{6-Amino-5-[1-(2,6-dichloro-3-fluoro-phenyl)-ethoxy]-pyridin-3-yl}-imidazole-4-carboxylic acid methyl ester]"
,20,"CC(Oc1cc(-c2ccc(C(=O)N3CCC(N4CCCC4)CC3)cc2)cnc1N)c1cccc(C(=O)NCCc2cccc(O)c2)c1 (stereo not shown) [Example 87, 3-(1-{2-Amino-5-[4-(4-pyrrolidin-1-yl-piperidine-1-carbonyl)-phenyl]-pyridin-3-yloxy}-ethyl)-N-[2-(3-hydroxy-phenyl)-ethyl]-benzamide]"
910,,"CC(Oc1cc(N2CCCC2=O)cnc1N)c1c(Cl)ccc(F)c1Cl (stereo not shown) [Example 90, N-{6-Amino-5-[1-(2,6-dichloro-3-fluoro-phenyl)-ethoxy]-pyridin-3-yl}-pyrrolidin-2-one]"
1320,,"COc1ccc(C(=O)Nc2cnc(N)c(OC(C)c3c(Cl)ccc(F)c3Cl)c2)cc1 (stereo not shown) [Example 91, N-{6-Amino-5-[1-(2,6-dichloro-3-fluoro-phenyl)-ethoxy]-pyridin-3-yl}4-methoxy-benzamide]"
1690,,"COc1cc(C(=O)Nc2cnc(N)c(OC(C)c3c(Cl)ccc(F)c3Cl)c2)ccn1 (stereo not shown) [Example 92, N-{6-Amino-5-[1-(2,6-dichloro-3-fluoro-phenyl)-ethoxy]-pyridin-3-yl}-2-methoxy-isonicotinamide]"
1470,,"CC(Oc1cc(NC(=O)c2cnccn2)cnc1N)c1c(Cl)ccc(F)c1Cl (stereo not shown) [Example 93, Pyrazine-2-carboxylic acid {6-amino-5-[1-(2,6-dichloro-3-fluoro-phenyl)-ethoxy]-pyridin-3-yl}-amide]"
3790,,"CC(Oc1nc(-c2ccccc2NS(C)(=O)=O)cnc1N)c1c(Cl)ccc(F)c1Cl (stereo not shown) [Example 94, N-(2-{5-Amino-6-[1-(2,6-dichloro-3-fluoro-phenyl)-ethoxy]-pyrazin-2-yl}-phenyl)-methanesulfonamide]"
4200,,"Cc1cc2cccc(-c3cnc(N)c(OC(C)c4c(Cl)ccc(F)c4Cl)n3)c2[nH]1 (stereo not shown) [Example 95, 3-[1-(2,6-Dichloro-3-fluoro-phenyl)-ethoxy]-5-(2-methyl-1H-indol-7-yl)-pyrazin-2-ylamine]"
217,,"CC(Oc1cc(-c2ccc(C(=O)N3CCC(N4CCCC4)CC3)cc2)cnc1N)c1c(Cl)ccc(Cl)c1F (stereo not shown) [Example 96, (4-{6-Amino-5-[1-(3,6-dichloro-2-fluoro-phenyl)-ethoxy]-pyridin-3-yl}-phenyl)-(4-pyrrolidin-1-yl-piperidin-1-yl)-methanone]"
324,,"CC(Oc1cc(-c2ccc(C(=O)N3C[C@@H](C)N[C@@H](C)C3)cc2)cnc1N)c1c(Cl)ccc(Cl)c1F (stereo partly shown) [Example 97, (4-{6-Amino-5-[1-(3,6-dichloro-2-fluoro-phenyl)-ethoxy]-pyridin-3-yl}-phenyl)-(3,5-dimethyl-piperazin-1-yl)-methanone]"
40,,"CC(Oc1cc(-c2ccc(CC(=O)N3CCC(N)C3)cc2)cnc1N)c1c(Cl)ccc(F)c1Cl (stereo not shown) [Example 99, 2-(4-{6-Amino-5-[1-(2,6-dichloro-3-fluoro-phenyl)-ethoxy]-pyridin-3-yl}-phenyl)-1-(3-amino-pyrrolidin-1-yl)-ethanone]"
37,,"CC(Oc1cc(-c2ccc(CC(=O)N3CCNCC3)cc2)cnc1N)c1c(Cl)ccc(F)c1Cl (stereo not shown) [Example 100, 2-(4-{6-Amino-5-[1-(2,6-dichloro-3-fluoro-phenyl)-ethoxy]-pyridin-3-yl}-phenyl)-1-piperazin-1-yl-ethanone]"
39,,"CC(Oc1cc(-c2ccc(CC(=O)N3CC4C(N)C4C3)cc2)cnc1N)c1c(Cl)ccc(F)c1Cl (stereo not shown) [Example 101, 1-(6-Amino-3-aza-bicyclo[3.1.0]hex-3-yl)-2-(4-{6-amino-5-[1-(2,6-dichloro-3-fluoro-phenyl)-ethoxy]-pyridin-3-yl}-phenyl)-ethanone]"
164,,"CC(Oc1cc(-c2ccc(NC(=O)C3CCNCC3)nc2)cnc1N)c1c(Cl)ccc(F)c1Cl (stereo not shown) [Example 102, Piperidine-4-carboxylic acid {6′-amino-5′-[1-(2,6-dichloro-3-fluoro-phenyl)-ethoxy]-[3,3′]bipyridinyl-6-yl}-amide]"
340,,"CC(Oc1cc(-c2ccc(F)c(C#N)c2)cnc1N)c1c(Cl)ccc(F)c1Cl (stereo not shown) [Example 103, 5-{6-amino-5-[1-(2,6-dichloro-3-fluorophenyl)ethoxy]pyridin-3-yl}-2-fluorobenzonitrile]"
10,,"C[C@@H](Oc1cc(-c2ccc(C(=O)N3CCNCC3)cc2)cnc1N)c1c(Cl)ccc(F)c1Cl [Example 104, 3-[(1R)-1-(2,6-dichloro-3-fluorophenyl)ethoxy]-5-[4-(piperazin-1-ylcarbonyl)phenyl] pyridin-2-amine]"
44,,"CC(Oc1cc(-c2ccc(OCCN3CCCC3)cc2)cnc1N)c1c(Cl)ccc(F)c1Cl (stereo not shown) [Example 105, 3-[1-(2,6-dichloro-3-fluorophenyl)ethoxy]-5-[4-(2-pyrrolidin-1-ylethoxy)phenyl] pyridin-2-amine]"

SMILES,Ki [nM],inhibition at 1 µM [%]
"CC(Oc1cc(-c2ccc(CC(=O)N3CCN(C)CC3)cc2)cnc1N)c1c(Cl)ccc(F)c1Cl (stereo not shown) [Example 98, 2-(4-{6-Amino-5-[1-(2,6-dichloro-3-fluoro-phenyl)-ethoxy]-pyridin-3-yl}-phenyl)-1-(4-methyl-piperazin-1-yl)-ethanone]",68,
